Reference: patent US20060079510A1, “Use of PARP-1 inhibitors for protecting tumorcidal lymphocytes from apoptosis” (priority 2004, published 2006)
Entries after “also recorded” stand apart in the source; their conditions may differ.

Experiments:
[1] = tested on: peripheral blood lymphocytes; test: Oxidant-induced cell death in lymphocytes incubated with mononuclear phagocytes or hydrogen peroxide, flow cytometry; format: cell-based, human; conditions: for protection of lymphocytes from phagocyte- or hydrogen peroxide-induced (oxidant/ROS-induced) cell death / apoptosis: pretreatment, PJ34 250 nM, DPQ 3 μM, Z-VAD.fmk 100 μM, overnight incubation with phagocytes or H2O2; for protection of lymphocytes from phagocyte-induced cell death (FIG. 1): overnight with autologous mononuclear phagocytes, catalase 200 U/ml, histamine, DPI 3 μM, p<0.001, n=4
Method: Peripheral venous blood was obtained as freshly prepared leukopacks from healthy blood donors at the Blood Centre, Sahlgren's Hospital, Göteborg, Sweden, to study the activation characteristics of cytotoxic lymphocytes in the presence and absence of MO, and ROM inhibitors. The blood (65 ml) was mixed with 92.5 ml Iscove's medium, 35 ml 6% Dextran (Kabi Pharmacia, Stockholm, Sweden) and 7.5 ml acid citrate dextrose (ACD) (Baxter, Deerfield, Ill.). After incubation for 15 minutes at room temperature, the supernatant was carefully layered onto Ficoll-Hypaque (Lymphoprep, Myegaard, Norway). Mononuclear cells (MNC) were collected at the interface after centrifugation at 380 g for 15 minutes at room temperature, washed twice in PBS and resuspended in Iscove's medium supplemented with 10% human AB^+ serum. During all further separation of cells, the cell suspensions were kept in siliconized test tubes (Vacuette, Greiner, Stockholm).
The MNC were further separated into lymphocyte and monocyte (MO) populations using the counter-current centrifugal elutriation (CCE) technique originally described by Yasaka and co-workers (Yasaka, T. et al., J. Immunol., 127:1515) with modifications as described in Hansson, M., et al. (J. Immunol., 156: 42 (1996); hereby incorporated by reference). Briefly, the sedimentation rate of cells in a spinning rotor was balanced by a counter-directed flow through the chamber. By slowly increasing the flow rate, fractions of cells of well-defined sizes were collected. The MNC were resuspended in elutration buffer containing 0.5% BSA (ICN Biomedicals Inc., Aurora, Ohio) and 0.1% EDTA (VWR, Göteborg, Sweden) in buffered NaCl and fed into a Beckman J2-21 ultracentrifuge with a JE-6B rotor (Bechman Coulter Inc., Fullerton, Calif.) at 2100 rpm. A fraction with >90% MO was obtained at a flow rate of 19 ml/min. A lymphocyte fraction enriched for NK-cells (CD3^−/56^+ phenotype) and T-cells (CD3^+/56^−) was recovered at flow rates of 14-15 ml/min. This fraction contained <3% MO and consisted of CD3ε^−/56^+ NK-cells (45-50%), CD3ε^+/56^− T-cells (35-40%), CD3ε^−/56^− cells (5-10%), and CD3ε^+/56^+ cells (1-5%), as judged by flow cytometry. In some experiments, dynabeads (Dynal A/S, Oslo, Norway) coated with anti-CD56 were used to obtain purified lymphocyte preparations of T-cells, as described in detail by Hansson, M., et al., incorporated above.
Briefly, lymphocytes were incubated overnight with autologous mononuclear phagocytes in the presence or absence of catalase (200 U/ml), histamine ([…]) or DPI (3 μM).
Briefly, lymphocytes, pretreated with PJ34 (250 ηM), Z-VAD.fmk (100 μM) or medium, were subjected to mononuclear phagocytes at different Mo/Ly ratios (FIG. 5A) or to different concentrations of H2O2 (FIG. 5C). FIGS. 5A-5D illustrate that PJ34 protected lymphocytes from cell death induced by phagocytes ([…], ratio 1:1, p<0.05) and hydrogen peroxide (FIGS. 5C and 5D, 250 μM, p<0.001).

tumoricidal lymphocytes = test: Tumor-killing function of tumoricidal lymphocytes after phagocyte or hydrogen peroxide exposure; format: cell-based, human; conditions: PJ34 250 nM or DPQ 3 μM
Text: As detailed above, a significant part of the dysfunction of tumor-killing lymphocytes at the site of malignant tumor growth has been attributed to inhibitory signals from tumor-infiltrating or tumor-adjacent phagocytes. […] However, the molecular events underlying phagocyte-induced lymphocyte apoptosis are not fully understood. The role of two enzyme systems responsible for induction and execution of apoptosis, caspases and the poly(ADP-ribose) polymerase (PARP) were investigated. Human tumoricidal lymphocytes were incubated with autologous mononuclear phagocytes or with exogenously added hydrogen peroxide, and assayed for apoptotic features at various time points. […] It is therefore believed that PARP-dependent cell death may be critically involved in phagocyte-dependent, oxygen free radical-induced cell death.

caspase-3 = test: Caspase activation in lymphocytes, FLICA assay (FAM-VAD.fmk), flow cytometry; format: cell-based, human; conditions: overnight, phagocytes ratio 1:1 or H2O2 250 μM; PJ34 pretreatment printed as 250 μM and 250 ηM
Method: To study the role of caspases for ROS-induced cell death in anti-neoplastic cells, lymphocytes subjected to phagocytes or hydrogen peroxide were assayed for binding of a fluorochrome-conjugated caspase-3 inhibitor. Briefly, lymphocytes were incubated overnight with hydrogen peroxide (250 μM) or ROS-producing phagocytes (Ph, ratio 1:1) and then assayed for caspase activation using a Fluorochrome-Labeled Inhibitor of Caspases (FLICA) assay. Lymphocytes were incubated with a FITC-labeled caspase inhibitor (FAM-VAD.fmk, MP Biomedicals, Irvine, Calif.) for one hour according to the instructions provided by the manufacturer, and the percentage of cells with active caspase-3 was determined using flow cytometry. Caspase-3 activation was also monitored using the fluorogenic caspase-3 substrate PhiPhiLux (Oncolmmunin, Gaithersburg, Md.) according to the manufacturer's instructions. The FLICA reagent traverses the membranes of all cells and bind to the active site of activated caspase 3. Thus, only cells with activated caspases will retain the reagent and become fluorescent.
Briefly, after overnight incubation with mononuclear phagocytes (Ph, ratio 1:1) or hydrogen peroxide (250 μM) in the presence or absence of PJ34 (250 μM), lymphocytes were stained with a FITC-labeled caspase inhibitor (FAM-VAD.fmk) and assayed for caspase activation using flow cytometry. […]

lymphocytes = test: Altered mitochondrial transmembrane potential (Mitochondrial Membrane Sensor Kit) and To-Pro-3 staining; format: cell-based, human; conditions: H2O2 250 μM or mononuclear phagocytes; PJ34 250 μM as printed
Method: A Mitochondrial Membrane Sensor Kit (BD Clontech) was used to identify cells with altered mitochondrial transmembrane potential according to the manufacturer's protocol.
Briefly, lymphocytes exposed to hydrogen peroxide (250 μM) were assayed for altered mitochondrial transmembrane potential and plasma membrane integrity at various time points. Depolarization of the Ψm is seen as an increase in green fluorescence (mitosensor monomers).

Hepatitis C = test: Treatment of subjects suffering from Hepatitis C (Example 3); format: in vivo, human; conditions: PJ34 100 mg/day intravenously, three weeks
Method: Subjects suffering from Hepatitis C are identified. Individuals are administered 100 mg/day of a PARP-1 inhibitor, PJ34, intravenously for a period of three weeks.

[2] = tested on: neoplastic disease and/or viral infection; test: Treatment of subjects with neoplastic disease and/or viral infection (Example 4); format: in vivo, human; conditions: CEP-6800 250 mg/day with IL-2, interferon-α and histamine, repeated every 4-6 weeks
Method: Subjects in need of enhanced cytotoxic lymphocyte activity, because of a neoplastic disease, and/or a viral infection such as hepatitis B (HBV), hepatitis C(HCV), human immunodeficiency virus (HIV), human papilloma virus (HPV) or herpes simplex virus (HSV) type 1 or 2, or other viral infections, are administered 250 mg/day of CEP-6800, a PARP-1 inhibitor. Additionally, subjects are administered human recombinant IL-2 (Proleukin®, Eurocetus) by subcutaneous injection or by continuous infusion of 27 μg/kg/day on days 1-5 and 8-12. The subjects also receive a daily dose of 6×10^6 U interferon-α administered by a suitable route, such as subcutaneous injection. This treatment also includes administering 0.2 to 2.0 mg or 3-10 μg/kg of histamine injected 1, 2, or more times per day in conjunction with the administration of IL-2 and/or interferon-α.
The above procedure is repeated every 4-6 weeks until an objective regression of the tumor is observed, or until improvement in the viral infection occurs. The therapy can be continued even after a first, second, or subsequent complete remission has been observed. In patients with complete responses, the therapy can be given with longer intervals between cycles. […]

NK cells = conditions: H2-receptor antagonist or agonist; cited from earlier work
AML = test: Treatment of subjects with AML in remission (Example 1); format: in vivo, human; conditions: 3-aminobenzamide s.c. (50 mg/day) with histamine dihydrochloride, IL-2, cytarabine and thioguanine, 21-day cycles
Method: Subjects with AML in a first, second, subsequent or complete remission are treated in 21-day courses with IL-2 (35-50 μg (equivalent to 6.3-9×10^5 IU) subcutaneously (s.c.). twice daily), repeated with three to six-week intermissions and continued until relapse. In cycle #1, patients receive three weeks of low dose chemotherapy consisting of 16 mg/m^2/day cytarabine, and 40 mg/day thioguanine. Concomitantly, patients are injected subcutaneously with an effective amount of a pharmaceutically acceptable form of a PARP-1 inhibitor, 3-aminobenzamide. Additionally, the patients are administered an effective amount of a pharmaceutically acceptable form of histamine dihydrochloride to boost circulating histamine to a beneficial level twice daily (above 0.2 μmole/L). Histamine levels can be continually boosted to beneficial levels by administering histamine dihydrochloride by injection at 0.2 to 2.0 mg or 3-10 μg/kg twice daily in a pharmaceutically acceptable form of a ROM inhibitory compound during the IL-2 treatment. Thereafter, the subjects are allowed to rest for three to six weeks. After the rest period at the end of the first cycle (cycle #1), the second cycle (cycle #2) is initiated. […]

[3] = vs subjects without PARP-1 inhibitor

Q: Which “protection from cell death induced by hydrogen peroxide (FIGS. 5C and 5D)” value ([1]; PJ34 250 ηM, H2O2 250 μM, p<0.001) does the source give for CN(C)CC(=O)Nc1ccc2[nH]c(=O)c3ccccc3c2c1 [PJ34] here?
A: Its value is “protected”.

Q: And the “protection from cell death induced by phagocytes” value ([1]; PJ34 250 ηM, Mo/Ly ratio 1:1, p<0.05)?
A: Its value is “protected”.

Q: What about the “protection of lymphocytes from phagocyte- or hydrogen peroxide-induced (oxidant/ROS-induced) cell death / apoptosis” value [1] of the same molecule?
A: The value was “completely protected; also recorded: resisted the oxidative stress”.

Q: What about the “restoration of tumor-killing function” value (tumoricidal lymphocytes) of the same molecule?
A: Its value is “restored”.

Q: And the “caspase activation triggered by phagocytes and H2O2 (FIG. 3)” value (caspase-3)?
A: The value was “reversed”.

Q: What about the “protection from oxidant-induced alterations of Ψm (FIG. 4)” value (lymphocytes) of the same molecule?
A: Its value is “protected”.

Q: And the “symptoms associated with Hepatitis C” value (Hepatitis C)?
A: The value was “reduction in symptoms associated with Hepatitis C”.

Q: What about the ROM-mediated damage (Hepatitis C; [3]) of the same molecule?
A: Its ROM-mediated damage is “reduction in ROM-mediated damage”.

Q: What about the cytotoxic lymphocyte activation (Hepatitis C; [3]) of the same molecule?
A: Its cytotoxic lymphocyte activation is “increase in cytotoxic lymphocyte activation”.

Q: Which “viral infection or tumor mass” value [2] does the source give for NCc1ccc2[nH]c3c4c(c5c(c3c2c1)C(=O)NC5=O)CCC4 [CEP-6800] here?
A: Its value is “reduction in viral infection or tumor mass”.

Q: With CNC(=C[N+](=O)[O-])NCCSCc1ccc(CN(C)C)o1 [ranitidine] as the molecule, how does the “effect of histamine on granulocyte mediated suppression of antibody dependent cytotoxicity of NK cells” value (NK cells) read?
A: The value was “blocked”.

Q: With Q-VD.OPh as the molecule, how does the “protection of lymphocytes from phagocyte- or hydrogen peroxide-induced (oxidant/ROS-induced) cell death / apoptosis” value [1] read?
A: Its value is “failed to protect”.

Q: Which “protection of lymphocytes from phagocyte- or hydrogen peroxide-induced (oxidant/ROS-induced) cell death / apoptosis” value [1] does the source give for O=C1NCCc2c(OCCCCN3CCCCC3)cccc21 [DPQ] here?
A: The value was “completely protected; also recorded: resisted the oxidative stress”.

Q: What about the “restoration of tumor-killing function” value (tumoricidal lymphocytes) of the same molecule?
A: The value was “restored”.

Q: Which “clinical outcome in AML” value (AML) does the source give for NC(=O)c1cccc(N)c1 [3-aminobenzamide] here?
A: The value was “reduction in cancer”.

Q: Which “protection of lymphocytes from phagocyte-induced cell death (FIG. 1)” value [1] does the source give for c1ccc([I+]c2ccccc2)cc1 [DPI, diphenyliodonium] here?
A: The value was “fully protected”.

Q: With CN(C)CCCSC(=N)N [dimaprit] as the molecule, how does the “effect of histamine on granulocyte mediated suppression of antibody dependent cytotoxicity of NK cells” value (NK cells) read?
A: The value was “mimicked”.

B1: catalase: H2O2 scavenger (Boehringer-Mannheim) (protein, UniProt P00432 2-527, looked up)
Catalase: ADNRDPASDQMKHWKEQRAAQKPDVLTTGGGNPVGDKLNSLTVGPRGPLLVQDVVFTDEMAHFDRERIPERVVHAKGAGAFGYFEVTHDITRYSKAKVFEHIGKRTPIAVRFSTVAGESGSADTVRDPRGFAVKFYTEDGNWDLVGNNTPIFFIRDALLFPSFIHSQKRNPQTHLKDPDMVWDFWSLRPESLHQVSFLFSDRGIPDGHRHMNGYGSHTFKLVNANGEAVYCKFHYKTDQGIKNLSVEDAARLAHEDPDYGLRDLFNAIATGNYPSWTLYIQVMTFSEAEIFPFNPFDLTKVWPHGDYPLIPVGKLVLNRNPVNYFAEVEQLAFDPSNMPPGIEPSPDKMLQGRLFAYPDTHRHRLGPNYLQIPVNCPYRARVANYQRDGPMCMMDNQGGAPNYYPNSFSAPEHQPSALEHRTHFSGDVQRFNSANDDNVTQVRTFYLKVLNEEQRKRLCENIAGHLKDAQLFIQKKAVKNFSDVHPEYGSRIQALLDKYNEEKPKNAVHTYVQHGSHLSAREKANL
Q: For B1, which “protection of lymphocytes from phagocyte-induced cell death (FIG. 1)” value [1] is on record?
A: The value was “fully protected”.
